{"source": "patent EP2951180B1", "about": "“2,6,7,8 SUBSTITUTED PURINES AS HDM2 INHIBITORS” (Merck Sharp & Dohme Corp., priority 2013, dated 2014)"}
{"biological_target": "T1, HDM2 (Homo sapiens, UniProt Q00987)", "T1 construct": "Thioredoxin (N); made in house; host or cells: E. coli strain BL21(DE3)Rosetta", "T1 sequence (Q00987 17-125)": "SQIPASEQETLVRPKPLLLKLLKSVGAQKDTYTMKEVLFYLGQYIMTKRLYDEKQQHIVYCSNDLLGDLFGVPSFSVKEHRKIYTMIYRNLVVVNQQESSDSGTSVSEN", "experiment": "HDM2 FRET assay (inhibition of binding of FITC labeled p53-pocket peptide to HDM2)", "details": "Table 17.2; read-out: FRET IC50", "method_in_brief": "(§1)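 Compounds were tested in 10-point serial dilution against 0.5 nM recombinant HDM2 binding 3 nM fluorescein-labeled p53-pocket peptide. Detection used 0.25 nM terbium cryptate anti-6xHis antibody in PBS buffer containing 0.01% BSA and 0.01% Tween-20.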", "units": {"IC50": "nM"}}
{"smiles": "CC(C)S(=O)(=O)N1CCN(c2nc3nc(-c4noc(=O)[nH]4)nc(N[C@H](C)C4CCC4)c3n2C[C@H]2CC[C@H](C)CC2)[C@H](C)C1", "note": "[Example 17.17, 3-(6-{[(1R)-1-cyclobutylethyl]amino}-7-[(trans-4-methylcyclohexyl)methyl]-8-{(2R)-2-methyl-4-[(1-methylethyl)sulfonyl]piperazin-1-yl}-7H-purin-2-yl)-1,2,4-oxadiazol-5(4H)-one]", "IC50": 10.1}
{"smiles": "C[C@@H]1CN(C(=O)CO)CCN1c1nc2nc(-c3noc(=O)[nH]3)nc(N[C@H](C)C3CCC3)c2n1C[C@H]1CC[C@H](C)CC1", "note": "[Example 17.18, 3-(6-{[(1R)-1-cyclobutylethyl]amino}-8-[(2R)-4-(hydroxyacetyl)-2-methylpiperazin-1-yl]-7-[(trans-4-methylcyclohexyl)methyl]-7H-purin-2-yl)-1,2,4-oxadiazol-5(4H)-one]", "IC50": 3.79}
{"smiles": "C[C@@H]1CNCCN1c1nc2nc(-c3noc(=O)[nH]3)nc(N[C@H](C)C3CCC3)c2n1C[C@H]1CC[C@H](C)CC1", "note": "[Example 17.19, 3-(6-{[(1R)-1-cyclobutylethyl]amino}-7-[(trans-4-methylcyclohexyl)methyl]-8-[(2R)-2-methylpiperazin-1-yl]-7H-purin-2-yl)-1,2,4-oxadiazol-5(4H)-one]", "IC50": 15.5}
{"smiles": "C[C@@H]1CN(C(=O)OC(C)(C)C)[C@@H](C)CN1c1nc2nc(-c3noc(=O)[nH]3)nc(N[C@H](C)C3CCC3)c2n1C[C@H]1CC[C@H](C)CC1", "note": "[Example 17.20, tert-butyl (2S,5R)-4-[6-{[(1R)-1-cyclobutylethyl]amino}-7-[(trans-4-methylcyclohexyl)methyl]-2-(5-oxo-4,5-dihydro-1,2,4-oxadiazol-3-yl)-7H-purin-8-yl]-2,5-dimethylpiperazine-1-carboxylate]", "IC50": 14.7}
{"smiles": "C[C@@H]1CN[C@@H](C)CN1c1nc2nc(-c3noc(=O)[nH]3)nc(N[C@H](C)C3CCC3)c2n1C[C@H]1CC[C@H](C)CC1", "note": "[Example 17.21, 3-(6-{[(1R)-1-cyclobutylethyl]amino}-8-[(2R,5S)-2,5-dimethylpiperazin-1-yl]-7-[(trans-4-methylcyclohexyl)methyl]-7H-purin-2-yl)-1,2,4-oxadiazol-5(4H)-one]", "IC50": 20.1}
{"smiles": "CC(=O)N1C[C@@H](C)N(c2nc3nc(-c4noc(=O)[nH]4)nc(N[C@H](C)C4CCC4)c3n2C[C@H]2CC[C@H](C)CC2)C[C@@H]1C", "note": "[Example 17.22, 3-{8-[(2R,5S)-4-acetyl-2,5-dimethylpiperazin-1-yl]-6-{[(1R)-1-cyclobutylethyl]amino}-7-[(trans-4-methylcyclohexyl)methyl]-7H-purin-2-yl}-1,2,4-oxadiazol-5(4H)-one]", "IC50": 4.35}
{"smiles": "C[C@@H]1CN(C(=O)C2CC2)[C@@H](C)CN1c1nc2nc(-c3noc(=O)[nH]3)nc(N[C@H](C)C3CCC3)c2n1C[C@H]1CC[C@H](C)CC1", "note": "[Example 17.23, 3-(6-{[(1R)-1-cyclobutylethyl]amino}-8-[(2R,5S)-4-(cyclopropylcarbonyl) -2,5-dimethylpiperazin-1-yl]-7-[(trans-4-methylcyclohexyl)methyl]-7H-purin-2-yl)-1,2,4-oxadiazol-5(4H)-one]", "IC50": 4.88}
{"biological_target": "T1, HDM2", "experiment": "HDM2 FRET assay (inhibition of binding of FITC labeled p53-pocket peptide to HDM2)", "details": "Table 18; read-out: FRET IC50", "method_in_brief": "as §1", "units": {"IC50": "nM"}}
{"smiles": "CC(C)c1ccnc(-c2nc3nc(C(=O)O)nc(N[C@H](C)C4CCC4)c3n2C[C@H]2CC[C@H](C(F)(F)F)CC2)c1", "note": "[Example 18.1, 6-(((R)-1-cyclobutylethyl)amino)-8-(4-isopropylpyridin-2-yl)-7-((trans-4-(trifluoromethyl)cyclohexyl)methyl)-7H-purine-2-carboxylic acid]", "IC50": 3.46}
{"smiles": "CC(C)c1ccnc(-c2nc3nc(C(=O)O)nc(N[C@H](C)C4CCC4)c3n2CC2CCC(F)(F)CC2)c1", "note": "[Example 18.3, (R)-6-((1-cyclobutylethyl)amino)-7-((4,4-difluorocyclohexyl)methyl)-8-(4-isopropylpyridin-2-yl)-7H-purine-2-carboxylic acid]", "IC50": 57.4}
{"smiles": "CCC1CCC(Cn2c(-c3cc(C(C)C)ccn3)nc3nc(-c4noc(=O)[nH]4)nc(N[C@H](C)C4CCC4)c32)C1", "note": "(stereo partly drawn) [Example 18.4, 3-(6-(((R)-1-cyclobutylethyl)amino)-7-((3-ethylcyclopentyl)methyl) -8-(4-isopropylpyridin-2-yl)-7H-purin-2-yl)-1,2,4-oxadiazol-5(4H)-one]", "IC50": 131}
{"smiles": "CC1=CCC(Cn2c(-c3cc(C(C)C)ccn3)nc3nc(C(=O)O)nc(N[C@H](C)C4CCC4)c32)CC1", "note": "(stereo partly drawn) [Example 18.5, 6-(((R)-1-cyclobutylethyl)amino)-8-(4-isopropylpyridin-2-yl)-7-((4-methylcyclohex-3-en-1-yl)methyl)-7H-purine-2-carboxylic acid]", "IC50": 6.48}
{"smiles": "CCC1=CCC(Cn2c(-c3cc(C(C)C)ccn3)nc3nc(C(=O)O)nc(N[C@H](C)C4CCC4)c32)CC1", "note": "(stereo partly drawn) [Example 18.6, 6-(((R)-1-cyclobutylethyl)amino)-7-((4-ethylcyclohex-3-en-1-yl)methyl)-8-(4-isopropylpyridin-2-yl)-7H-purine-2-carboxylic acid]", "IC50": 15.9}
{"smiles": "CCC1=CCC(Cn2c(-c3cc(C(C)C)ccn3)nc3nc(-c4noc(=O)[nH]4)nc(N[C@H](C)C4CCC4)c32)CC1", "note": "(stereo partly drawn) [Example 18.7, 3-(6-(((R)-1-cyclobutylethyl)amino)-7-((4-ethylcyclohex-3-en-1-yl)methyl)-8-(4-isopropylpyridin-2-yl)-7H-purin-2-yl)-1,2,4-oxadiazol-5(4H)-one]", "IC50": 44}
{"smiles": "CC(C)c1ccnc(-c2nc3nc(C(=O)O)nc(N[C@H](C)C4CCC4)c3n2CC2CCC(C)(C)CC2)c1", "note": "[Example 18.8, (R)-6-((1-cyclobutylethyl)amino)-7-((4,4-dimethylcyclohexyl)methyl)-8-(4-isopropylpyridin-2-yl)-7H-purine-2-carboxylic acid]", "IC50": 59.5}
{"smiles": "CC(C)c1ccnc(-c2nc3nc(-c4noc(=O)[nH]4)nc(N[C@H](C)C4CCC4)c3n2CC2CCC(C)(C)CC2)c1", "note": "[Example 18.9, (R)-3-(6-((1-cyclobutylethyl)amino)-7-((4,4-dimethylcyclohexyl)methyl)-8-(4-isopropylpyridin-2-yl)-7H-purin-2-yl)-1,2,4-oxadiazol-5(4H)-one]", "IC50": 394}
{"smiles": "CC(C)c1ccnc(-c2nc3nc(C(=O)O)nc(N[C@H](C)C4CCC4)c3n2C[C@H]2CC[C@H](CF)CC2)c1", "note": "[Example 18.10, 6-(((R)-1-cyclobutylethyl)amino)-7-((trans-4-(fluoromethyl)cyclohexyl)methyl)-8-(4-isopropylpyridin-2-yl)-7H-purine-2-carboxylic acid]", "IC50": 9.38}
{"smiles": "CC[C@H]1CC[C@H](Cn2c(-c3cccc(C)c3)nc3nc(C(=O)O)nc(N[C@H](C)C4CCC4)c32)CC1", "note": "[Example 18.15, 6-{[(1R)-1-cyclobutylethyl]amino}-7-[(trans-4-ethylcyclohexyl)methyl]-8-(3-methylphenyl)-7H-purine-2-carboxylic acid]", "IC50": 201}
{"smiles": "CC[C@H]1CC[C@H](Cn2c(-c3cc(C)ccc3OC)nc3nc(C(=O)O)nc(N[C@H](C)C4CCC4)c32)CC1", "note": "[Example 18.16, 6-{[(1R)-1-cyclobutylethyl]amino}-7-[(trans-4-ethylcyclohexyl)methyl]-8-(2-methoxy-5-methylphenyl)-7H-purine-2-carboxylic acid]", "IC50": 31.8}
{"smiles": "CC[C@H]1CC[C@H](Cn2c(N3CCCCC3)nc3nc(C(=O)O)nc(N[C@H](C)C4CCC4)c32)CC1", "note": "[Example 18.18, 6-{[(1R)-1-cyclobutylethyl]amino}-7-[(trans-4-ethylcyclohexyl)methyl]-8-piperidin-1-yl-7H-purine-2-carboxylic acid]", "IC50": 8.6}
{"smiles": "CC[C@H]1CC[C@H](Cn2c(N3CCOCC3)nc3nc(C(=O)O)nc(N[C@H](C)C4CCC4)c32)CC1", "note": "[Example 18.19, 6-{[(1R)-1-cyclobutylethyl]amino}-7-[(trans-4-ethylcyclohexyl)methyl]-8-morpholin-4-yl-7H-purine-2-carboxylic acid]", "IC50": 13.1}
{"smiles": "CC[C@H]1CC[C@H](Cn2c(-c3cc(C(C)C)ccn3)nc3nc(-c4noc(=O)[nH]4)nc(N[C@H](C)C4CCC4)c32)CC1", "note": "[Example 18.20, 3-(6-{[(1R)-1-cyclobutylethyl]amino}-7-[(trans-4-ethylcyclohexyl)methyl]-8-[4-(1-methylethyl)pyridin-2-yl]-7H-purin-2-yl)-1,2,4-oxadiazol-5(4H)-one]", "IC50": 15.7}
{"smiles": "CC[C@H]1CC[C@H](Cn2c(N3CCOC[C@H]3c3ccccc3)nc3nc(C(=O)O)nc(N[C@H](C)C4CCC4)c32)CC1", "note": "[Example 18.21, 6-{[(1R)-1-cyclobutylethyl]amino}-7-[(trans-4-ethylcyclohexyl)methyl]-8-[(3R)-3-phenylmorpholin-4-yl]-7H-purine-2-carboxylic acid]", "IC50": 0.548}
{"smiles": "CC[C@H]1CC[C@H](Cn2c(N3CCOC[C@H]3c3ccccc3)nc3nc(-c4noc(=O)[nH]4)nc(N[C@H](C)C4CCC4)c32)CC1", "note": "[Example 18.22, 3-(6-{[(1R)-1-cyclobutylethyl]amino}-7-[(trans-4-ethylcyclohexyl)methyl]-8-[(3R)-3-phenylmorpholin-4-yl]-7H-purin-2-yl)-1,2,4-oxadiazol-5(4H)-one]", "IC50": 3.86}
{"smiles": "CCC1CC=C(Cn2c(-c3cc(C(C)C)ccn3)nc3nc(C(=O)O)nc(N[C@H](C)C4CCC4)c32)CC1", "note": "(stereo partly drawn) [Example 18.23, 6-{[(1R)-1-cyclobutylethyl]amino}-7-[(4-ethylcyclohex-1-en-1-yl)methyl]-8-[4-(1-methylethyl)pyridin-2-yl]-7H-purine-2-carboxylic acid]", "IC50": 26.4}
{"smiles": "CCC1=CCC(Cn2c(-c3cc(C(C)C)ccn3)nc3nc(C(=O)O)nc(N[C@H](C)C4CCC4)c32)CC1", "note": "(stereo partly drawn) [Example 18.24, 6-{[(1R)-1-cyclobutylethyl]amino}-7-[(4-ethylcyclohex-3-en-1-yl)methyl]-8-[4-(1-methylethyl)pyridin-2-yl]-7H-purine-2-carboxylic acid]", "IC50": 15.9}
{"smiles": "CCC1=CCC(Cn2c(-c3cc(C(C)C)ccn3)nc3nc(-c4noc(=O)[nH]4)nc(N[C@H](C)C4CCC4)c32)CC1", "note": "(stereo partly drawn) [Example 18.25, 3-(6-{[(1R)-1-cyclobutylethyl]amino}-7-[(4-ethylcyclohex-3-en-1-yl)methyl]-8-[4-(1-methylethyl)pyridin-2-yl]-7H-purin-2-yl)-1,2,4-oxadiazol-5(4H)-one]", "IC50": 44}
